Data from the supplement of paper PMC10307832.

How the values were obtained:
Test in all cases: relative viability (nuclei count vs DMSO), 5 days (fraction); higher = more cells survive
AGI-6780 + Alpelisib = compound: O=C(Nc1cccc(C(F)(F)F)c1)Nc1cc(S(=O)(=O)NC2CC2)ccc1-c1ccsc1 [AGI-6780] + Cc1nc(NC(=O)N2CCC[C@H]2C(N)=O)sc1-c1ccnc(C(C)(C)C(F)(F)F)c1 [Alpelisib] (partner 2 µM)
Procedure, shortened: (§1)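 Lung cancer cell lines in 1536-well plates were dosed by pin tool the day after seeding, either with one drug alone or with a fixed anchor-drug dose plus five library-drug doses (not always all listed) in √10 steps. After 5 days, cells were fixed and their nuclei stained in one step (final 0.05% Triton X-100, 1% formaldehyde, 1 ug/ml Hoechst), then counted on 4× images. Relative viability is the nuclei count in treated wells divided by that in vehicle wells. Values are medians of duplicate plates.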

AGI-6780 + Phenformin = compound: O=C(Nc1cccc(C(F)(F)F)c1)Nc1cc(S(=O)(=O)NC2CC2)ccc1-c1ccsc1 [AGI-6780] + N=C(N)NC(=N)NCCc1ccccc1 [Phenformin] (partner 250 µM)
Procedure, shortened: as §1

AGI-6780 + AZD7762 = compound: O=C(Nc1cccc(C(F)(F)F)c1)Nc1cc(S(=O)(=O)NC2CC2)ccc1-c1ccsc1 [AGI-6780] + NC(=O)Nc1cc(-c2cccc(F)c2)sc1C(=O)N[C@H]1CCCNC1 [AZD7762] (partner 0.2 µM)
Procedure, shortened: as §1

AGI-6780 + Pictilisib = compound: O=C(Nc1cccc(C(F)(F)F)c1)Nc1cc(S(=O)(=O)NC2CC2)ccc1-c1ccsc1 [AGI-6780] + CS(=O)(=O)N1CCN(Cc2cc3nc(-c4cccc5[nH]ncc45)nc(N4CCOCC4)c3s2)CC1 [Pictilisib] (partner 1 µM)
Procedure, shortened: as §1

Row | Cell Line | relative viability (AGI-6780 + Alpelisib; first compound 0.08 µM) | relative viability (AGI-6780 + Alpelisib; first compound 0.253 µM) | relative viability (AGI-6780 + Alpelisib; first compound 0.8 µM) | relative viability (AGI-6780 + Alpelisib; first compound 2.53 µM) | relative viability (AGI-6780 + Alpelisib; first compound 8 µM) | relative viability (AGI-6780 + Phenformin; first compound 0.08 µM) | relative viability (AGI-6780 + Phenformin; first compound 0.253 µM) | relative viability (AGI-6780 + Phenformin; first compound 0.8 µM) | relative viability (AGI-6780 + Phenformin; first compound 2.53 µM) | relative viability (AGI-6780 + Phenformin; first compound 8 µM) | relative viability (AGI-6780 + AZD7762; first compound 0.08 µM) | relative viability (AGI-6780 + AZD7762; first compound 0.253 µM) | relative viability (AGI-6780 + AZD7762; first compound 0.8 µM) | relative viability (AGI-6780 + AZD7762; first compound 2.53 µM) | relative viability (AGI-6780 + AZD7762; first compound 8 µM) | relative viability (AGI-6780 + Pictilisib; first compound 0.08 µM) | relative viability (AGI-6780 + Pictilisib; first compound 0.253 µM) | relative viability (AGI-6780 + Pictilisib; first compound 0.8 µM) | relative viability (AGI-6780 + Pictilisib; first compound 2.53 µM) | relative viability (AGI-6780 + Pictilisib; first compound 8 µM)
1 | 201T | 1.11 | 1.05 | 0.991 | 0.941 | 1.01 | 0.495 | 0.41 | 0.486 | 0.427 | 0.492 | 0.612 | 0.577 | 0.565 | 0.535 | 0.656 | 0.699 | 0.735 | 0.686 | 0.647 | 0.702
2 | A-427 | 1.06 | 1.02 | 1.09 | 0.902 | 1.06 | 0.326 | 0.294 | 0.359 | 0.315 | 0.338 |  | 0.706 | 0.806 | 0.766 | 0.783 | 0.702 | 0.753 | 0.653 | 0.524 | 0.854
3 | ABC-1 | 1.14 | 0.918 | 1.08 | 0.829 | 1.24 | 0.218 | 0.263 | 0.238 | 0.263 | 0.197 | 0.774 | 0.967 | 0.891 |  | 1.08 | 0.86 | 0.865 | 1.05 | 0.864 | 0.756
4 | BEN | 1.04 | 0.966 | 1.36 |  | 0.914 | 0.25 | 0.281 | 0.289 | 0.288 | 0.28 | 0.6 | 0.737 | 0.754 |  | 0.721 | 0.527 | 0.629 | 0.586 |  | 0.521
5 | CAL-12T | 1.33 | 1.15 | 1.29 | 1.23 | 1.13 | 0.61 | 0.579 | 0.626 | 0.632 | 0.566 | 0.616 | 0.649 | 0.806 | 0.781 | 0.687 |  | 0.575 | 0.531 | 0.717 | 0.644
6 | COR-L23 | 0.757 | 0.688 | 0.67 | 0.747 | 0.699 | 0.457 | 0.489 | 0.424 | 0.408 | 0.506 |  |  |  |  |  | 0.772 | 0.755 | 0.702 | 0.66 | 0.827
7 | COR-L 105 | 1.19 | 1.02 | 0.986 | 0.863 | 1.04 | 0.407 | 0.461 | 0.507 | 0.524 | 0.539 |  |  |  |  |  | 0.482 | 0.393 | 0.463 | 0.463 | 0.39
8 | Calu-6 | 1.01 | 0.977 | 0.97 | 0.945 | 1.04 |  |  |  |  |  |  |  |  |  |  | 0.996 | 0.891 | 0.929 | 0.908 | 0.937
9 | ChaGo-K-1 |  |  |  |  |  | 0.494 | 0.562 | 0.503 | 0.452 | 0.543 | 0.851 | 0.932 | 0.932 | 0.812 | 0.919 | 0.593 | 0.809 | 0.938 | 0.552 | 0.704
10 | EBC-1 | 0.965 | 0.923 | 0.798 | 0.783 | 0.841 |  |  |  |  |  |  |  |  |  |  | 0.388 | 0.337 | 0.343 | 0.379 | 0.347
11 | EKVX | 0.96 | 0.839 | 0.995 | 0.755 | 0.898 | 0.23 | 0.245 | 0.252 | 0.25 | 0.251 | 0.675 | 0.728 | 0.806 | 0.681 | 0.641 | 0.445 | 0.437 | 0.495 | 0.395 | 0.495
12 | EMC-BAC-2 | 0.797 | 0.73 | 0.756 | 0.67 | 0.778 | 0.57 | 0.602 | 0.508 | 0.456 | 0.531 |  | 1.15 | 1.16 | 0.877 | 1.02 | 0.579 | 0.575 | 0.602 | 0.395 | 0.617
13 | EPLC-272H | 0.88 | 0.972 | 0.927 | 0.785 | 0.864 |  | 0.341 | 0.243 | 0.28 | 0.274 | 0.2 | 0.369 | 0.345 | 0.278 | 0.219 | 0.39 | 0.33 | 0.257 | 0.344 | 0.318
14 | H3255 | 0.687 | 0.62 | 0.728 | 0.468 | 0.754 | 0.39 | 0.381 | 0.384 | 0.358 | 0.385 | 0.834 | 0.918 | 1.05 | 1.01 | 0.875 | 0.475 | 0.436 | 0.512 | 0.457 | 0.443
15 | HARA | 0.925 | 0.834 | 0.585 | 0.801 | 0.974 | 0.402 | 0.483 | 0.436 | 0.324 | 0.399 | 0.541 | 0.611 | 0.223 | 0.367 | 0.313 | 0.379 | 0.406 | 0.54 | 0.587 | 0.371
16 | HCC-15 | 0.883 | 0.91 | 0.939 | 0.712 | 0.919 | 0.551 | 0.525 | 0.505 | 0.428 | 0.47 | 1.18 | 1.32 | 1.34 | 1.43 | 1.25 | 0.88 | 0.82 | 0.834 | 0.594 | 0.801
17 | HCC-44 | 0.874 | 0.755 | 0.826 | 0.626 | 0.817 | 0.182 | 0.202 | 0.354 | 0.175 | 0.257 | 0.916 | 1.11 | 1.04 | 1.07 | 1.04 | 0.745 | 0.72 | 0.649 | 0.496 | 0.486
18 | HCC-78 | 0.366 | 0.331 | 0.462 | 0.32 | 0.361 |  | 0.735 | 0.814 | 0.716 | 0.607 | 0.978 | 0.697 | 0.837 | 0.684 | 0.681 | 0.159 | 0.241 | 0.299 | 0.152 | 0.249
